Laboratory results published in patent publication US20190374533A1, “COMPOUNDS AND METHODS FOR INHIBITING NHE-MEDIATED ANTIPORT IN THE TREATMENT OF DISORDERS ASSOCIATED WITH FLUID RETENTION OR SALT OVERLOAD AND GASTROINTESTINAL TRACT DISORDERS” (Ardelyx, Inc., priority 2008, published 2019).
Where a name gives a salt, the structure may show the parent alone.

What was measured:
Format in all cases: cell-based
NHE3 [1] = molecular target: T1, NHE3 (Homo sapiens, UniProt P48764); test: Sustained inhibition of apical acid secretion in human organoid monolayer cell cultures (ileum); conditions: 1 μM apical, dosed day 6, apical media pH day 8
T1 construct: due to the increase in NHE3 expression after differentiation; endogenous in cells; host or cells: human ileum / duodenum organoid-derived monolayers
T1 sequence (P48764 26-834): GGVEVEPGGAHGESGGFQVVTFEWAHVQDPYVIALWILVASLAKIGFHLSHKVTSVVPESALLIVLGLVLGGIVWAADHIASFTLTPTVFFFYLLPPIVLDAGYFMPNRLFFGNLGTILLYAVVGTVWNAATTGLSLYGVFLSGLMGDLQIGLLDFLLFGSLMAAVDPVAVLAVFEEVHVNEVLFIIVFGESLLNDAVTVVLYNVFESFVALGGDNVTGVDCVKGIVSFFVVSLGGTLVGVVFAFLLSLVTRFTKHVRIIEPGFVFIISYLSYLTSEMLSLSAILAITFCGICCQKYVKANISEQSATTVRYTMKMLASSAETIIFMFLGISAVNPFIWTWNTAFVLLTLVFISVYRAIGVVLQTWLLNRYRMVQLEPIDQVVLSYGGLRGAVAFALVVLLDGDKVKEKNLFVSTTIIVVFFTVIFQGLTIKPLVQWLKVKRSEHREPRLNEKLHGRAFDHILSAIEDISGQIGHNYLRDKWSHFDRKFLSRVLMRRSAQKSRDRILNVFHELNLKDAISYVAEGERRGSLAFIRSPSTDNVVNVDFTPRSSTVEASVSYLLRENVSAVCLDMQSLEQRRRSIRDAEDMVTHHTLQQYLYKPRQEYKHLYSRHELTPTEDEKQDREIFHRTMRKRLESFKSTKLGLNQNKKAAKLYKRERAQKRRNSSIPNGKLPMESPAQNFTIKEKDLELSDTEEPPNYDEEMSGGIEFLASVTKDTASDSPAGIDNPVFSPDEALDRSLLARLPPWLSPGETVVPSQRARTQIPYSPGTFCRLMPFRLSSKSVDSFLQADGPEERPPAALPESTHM
Description: Basal media (BM) consisted of advanced DMEM/F12 containing 10 mM HEPES (Invitrogen, 15630-080), 1:100 Glutamax (Invitrogen, 35050-061), and 1:100 penicillin/streptomycin (Invitrogen, 15140-122). […] Growth factors used included 50 ng per mL mouse EGF (Peprotech, 315-09), 100 ng per mL mouse noggin (Peprotech, 250-38), 500 ng per mL human R-spondin 1 (R&D, 4645-RS), 100 ng per mL mouse Wnt-3a (R&D, 1324-WN), 20 μM Y-27632 (Tocris, 1254), 10 mM nicotinamide (Sigma, N0636), 500 nM A83-01 (Tocris, 2939), 10 μM SB202190 (Tocris, 1264). Transwells were 0.4 μm pore polyester membrane 24-well Transwell inserts (Corning). Cultures were incubated at 37° C. in 5% CO2.
Human ileum organoids were cultured in WENRNAS (Wnt, EGF, noggin. R-spondin1. Nicotinamide. A83-01, SB202190) and typically grown for 7-12 days before being used to plate monolayer cultures. On day 0, organoid cultures embedded in Matrigel were treated with TrypLE Express to break organoids into small pieces and/or single cells. […]
Each human ileum monolayer culture well was washed twice with fresh SBM on the apical side on day 6 before compound dosing. […] On day 8, apical media pH was measured by pH electrode, to determine the ability of example compounds to produce sustained inhibition of NHE3 activity in a human monolayer culture system by preventing proton secretion into the apical compartment.

NHE3 [2] = molecular target: T1, NHE3; test: Sustained inhibition of apical acid secretion in human organoid monolayer cell cultures (duodenum); conditions: 1 μM apical
[3] = test system: human duodenum monolayer culture; test: Increased trans-epithelial resistance (TEER) in human organoid monolayer cell cultures; conditions: 1 μM apical, baseline corrected
Description: Transwells were 0.4 μm pore polyester membrane 24-well Transwell inserts (Corning). Cultures were incubated at 37° C. in 5% CO2.
Human duodenum organoids were cultured in WENRNAS (Wnt, EGF, noggin, R-spondin1. Nicotinamide, A83-01, SB202190) and typically grown for 7-12 days before being used to plate monolayer cultures. On day 0, organoid cultures embedded in Matrigel were treated with TrypLE Express to break organoids into small pieces and/or single cells. The cells were resuspended to 0.5×10^6 cells/mL in SBM containing WENRAY (Wnt. EGF, noggin, R-spondin1, A83-01, Y-27632). Following this step, 200 μL of cell suspension was plated into the apical side of a 24-well Transwell (100,000 cells/well) and 600 μL of SBM with WENRAY was added to the basolateral side. Duodenum cells were differentiated with ENA (EGF, noggin, A83-01) on day 3. […]
Each human duodenum monolayer culture well was washed twice with fresh SBM on the apical side on day 6 or day 7 before dosing. […] Transepithelial electrical resistance (TEER) was used as a quantitative technique to measure of tight junction permeability. TEER values were recorded (MERS00002. Millipore) before dosing and 30 mins and 1 hr after dosing for all wells. […] Baseline corrected TEER for each example compound was compared to the average of the DMSO wells and expressed as a percent TEER of vehicle control.

Compound: CN1Cc2c(Cl)cc(Cl)cc2[C@H](c2cccc(S(=O)(=O)NCCOCCOCCNC(=O)NCCCCNC(=O)NCCOCCOCCNS(=O)(=O)c3cccc([C@@H]4CN(C)Cc5c(Cl)cc(Cl)cc54)c3)c2)C1 (single isomer, unassigned) [Example 202, (S or R)—N,N′-(10,17-dioxo-3,6,21,24-tetraoxa-9,11,16,18-tetraazahexacosane-1,26-diyl)bis(3-((S)-6,8-dichloro-2-methyl-1,2,3,4-tetrahydroisoquinolin-4-yl)benzenesulfonamide) bis-hydrochloride salt]
- % inhibition (ileum) (NHE3 [1]): C (>70%)
- % inhibition (duodenum) (NHE3 [2]): C (>70%)
- TEER at 30 minutes (% of Vehicle) ([3]; 30 mins after dosing): B (100-130%)
- TEER at 60 minues (% of Vehicle) ([3]; 1 hr after dosing): B (100-130%)
